Measured values published in patent publication US6461997B1, “Triazole sulfones having herbicidal activity” (Monsanto Technology LLC, priority 1999, dated 2002).

How the values were obtained:
DATST (jimsonweed) = experiment: Pre-emergence herbicidal activity, warm season; assay type: in vivo, Datura stramonium; details: GR80 = lowest tested rate (300, 100, 30, 10 g/ha) with 80% or greater inhibition; approx. 14 days after treating; 30/21° C.
Procedure: (§1) Tables 5 to 8 summarize results of tests conducted as described below to determine the pre-emergence herbicidal activity, in the form of a GR80 value, of illustrative compounds of this invention. […] Compounds of the invention were typically applied at rates of 300, 100, 30, and 10 g/ha. Where herbicidal activity was evident but 80% inhibition was not achieved at the highest rate tested, an asterisk (*) is shown in the following tables.
(§2) The pre-emergence tests were conducted by the following procedure. Topsoil was sieved to pass through a 1.27 cm screen. Fertilizer was added to the topsoil and the mixture was then sterilized by heating. The topsoil mixture was placed in a pot and compacted to a depth of 1.0 to 1.25 cm from the top of the pot. Seeds of each of several monocotyledonous and dicotyledonous annual plant species were placed on top of the soil. Additional soil was subsequently placed over the seeds to level-fill the pot. A known amount of each test compound dissolved or suspended in an appropriate organic solvent was diluted with a 50:50 mix of acetone and water and applied to the surface of the soil. After treatment the plants were placed in a greenhouse where they received 0.64 cm of overhead irrigation. All subsequent watering consisted of a light overhead mist and/or subirrigation as needed for germination and growth. Tables 5 and 6 below relate to warm season plant species which were placed after pre-emergence treatment in a greenhouse with a 30/21° C. day/night temperature regime. Tables 7 and 8 below relates to cool season plant species placed after pre-emergence treatment in a greenhouse or growth chamber with an 18/13° C. day/night temperature regime.
(§3) Approximately 14 days after planting and treating, the plants were observed and herbicidal efficacy recorded as percent inhibition by comparison with untreated plants.
(§4) The plant species usually regarded as weeds which were utilized in the tests are identified in the tables below according to the following legend, in which “d” indicates a dicotyledonous species and “m” a monocotyledonous species. All monocotyledonous species included in the tests herein are grasses.

[1] = test system: PANMI (wild proso millet); experiment: Pre-emergence herbicidal activity, warm season; assay type: in vivo, Panicum miliaceum; details: GR80 = lowest tested rate (300, 100, 30, 10 g/ha) with 80% or greater inhibition; approx. 14 days after treating; 30/21° C.
Procedure: as §1, §2, §3, §4

[2] = test system: GALAP (catchweed bedstraw); experiment: Pre-emergence herbicidal activity, cool season; assay type: in vivo, Galium aparine; details: lowest tested rate with 80% or greater inhibition; rates 300, 100, 30, 10 g/ha; about 14 days
Procedure: as §1, §2, §3, §4

POLCO (wild buckwheat) = experiment: Pre-emergence herbicidal activity, cool season; assay type: in vivo, Polygonum convolvulus; details: lowest tested rate with 80% or greater inhibition; rates 300, 100, 30, 10 g/ha; about 14 days
Procedure: as §1, §2, §3, §4

SINAR (wild mustard) = experiment: Pre-emergence herbicidal activity, cool season; assay type: in vivo, Sinapis arvensis; details: lowest tested rate with 80% or greater inhibition; rates 300, 100, 30, 10 g/ha; about 14 days
Procedure: as §1, §2, §3, §4

[3] = test system: VERPE (creeping speedwell); experiment: Pre-emergence herbicidal activity, cool season; assay type: in vivo, Veronica persicaria; details: lowest tested rate with 80% or greater inhibition; rates 300, 100, 30, 10 g/ha; about 14 days
Procedure: as §1, §2, §3, §4

SASKR (russian thistle) = experiment: Pre-emergence herbicidal activity, cool season; assay type: in vivo, Salsola kali; details: lowest tested rate with 80% or greater inhibition; rates 300, 100, 30, 10 g/ha; about 14 days
Procedure: as §1, §2, §3, §4

STEME (common chickweed) = experiment: Pre-emergence herbicidal activity, cool season; assay type: in vivo, Stellaria media; details: lowest tested rate with 80% or greater inhibition; rates 300, 100, 30, 10 g/ha; about 14 days
Procedure: as §1, §2, §3, §4

[4] = test system: LAMPU (purple deadnettle); experiment: Pre-emergence herbicidal activity, cool season; assay type: in vivo, Lamium purpureum; details: lowest tested rate with 80% or greater inhibition; rates 300, 100, 30, 10 g/ha; about 14 days
Procedure: as §1, §2, §3, §4

[5] = test system: AGSST (creeping bentgrass); experiment: Pre-emergence herbicidal activity, cool season; assay type: in vivo, Agrostis stolonifera; details: GR80 = lowest tested rate (300, 100, 30, 10 g/ha) with 80% or greater inhibition; approx. 14 days after treating; 18/13° C.
Procedure: as §1, §2, §3, §4

SOLNI (black nightshade) = experiment: Pre-emergence herbicidal activity, warm season; assay type: in vivo, Solanum nigrum; details: GR80 = lowest tested rate (300, 100, 30, 10 g/ha) with 80% or greater inhibition; approx. 14 days after treating; 30/21° C.
Procedure: as §1, §2, §3, §4

AMARE (redroot pigweed) = experiment: Pre-emergence herbicidal activity, warm season; assay type: in vivo, Amaranthus retroflexus; details: GR80 = lowest tested rate (300, 100, 30, 10 g/ha) with 80% or greater inhibition; approx. 14 days after treating; 30/21° C.
Procedure: as §1, §2, §3, §4

[6] = test system: CHEAL (common lambsquarters); experiment: Pre-emergence herbicidal activity, warm season; assay type: in vivo, Chenopodium album; details: GR80 = lowest tested rate (300, 100, 30, 10 g/ha) with 80% or greater inhibition; approx. 14 days after treating; 30/21° C.
Procedure: as §1, §2, §3, §4

[7] = test system: CIRAR (canada thistle (seedling)); experiment: Pre-emergence herbicidal activity, warm season; assay type: in vivo, Cirsium arvense; details: GR80 = lowest tested rate (300, 100, 30, 10 g/ha) with 80% or greater inhibition; approx. 14 days after treating; 30/21° C.
Procedure: as §1, §2, §3, §4

ECHCG (barnyardgrass) = experiment: Pre-emergence herbicidal activity, warm season; assay type: in vivo, Echinochloa crus-galli; details: GR80 = lowest tested rate (300, 100, 30, 10 g/ha) with 80% or greater inhibition; approx. 14 days after treating; 30/21° C.
Procedure: as §1, §2, §3, §4

[8] = test system: SORHA (johnsongrass (seedling)); experiment: Pre-emergence herbicidal activity, warm season; assay type: in vivo, Sorghum halepense; details: GR80 = lowest tested rate (300, 100, 30, 10 g/ha) with 80% or greater inhibition; approx. 14 days after treating; 30/21° C.
Procedure: as §1, §2, §3, §4

SETFA (giant foxtail) = experiment: Pre-emergence herbicidal activity, warm season; assay type: in vivo, Setaria faberi; details: GR80 = lowest tested rate (300, 100, 30, 10 g/ha) with 80% or greater inhibition; approx. 14 days after treating; 30/21° C.
Procedure: as §1, §2, §3, §4

[9] = test system: BRAPP (broadleaf signalgrass); experiment: Pre-emergence herbicidal activity, warm season; assay type: in vivo, Brachiaria platyphylla; details: GR80 = lowest tested rate (300, 100, 30, 10 g/ha) with 80% or greater inhibition; approx. 14 days after treating; 30/21° C.
Procedure: as §1, §2, §3, §4

DIGSA (large crabgrass) = experiment: Pre-emergence herbicidal activity, warm season; assay type: in vivo, Digitaria sanguinalis; details: GR80 = lowest tested rate (300, 100, 30, 10 g/ha) with 80% or greater inhibition; approx. 14 days after treating; 30/21° C.
Procedure: as §1, §2, §3, §4

ALOMY (blackgrass) = experiment: Pre-emergence herbicidal activity, cool season; assay type: in vivo, Alopecurus myosuroides; details: GR80 = lowest tested rate (300, 100, 30, 10 g/ha) with 80% or greater inhibition; approx. 14 days after treating; 18/13° C.
Procedure: as §1, §2, §3, §4

SETVI (green foxtail) = experiment: Pre-emergence herbicidal activity, cool season; assay type: in vivo, Setaria viridis; details: GR80 = lowest tested rate (300, 100, 30, 10 g/ha) with 80% or greater inhibition; approx. 14 days after treating; 18/13° C.
Procedure: as §1, §2, §3, §4

POROL (common purslane) = experiment: Pre-emergence herbicidal activity, warm season; assay type: in vivo, Portulaca oleracea; details: GR80 = lowest tested rate (300, 100, 30, 10 g/ha) with 80% or greater inhibition; approx. 14 days after treating; 30/21° C.
Procedure: as §1, §2, §3, §4

SORVU (shattercane) = experiment: Pre-emergence herbicidal activity, warm season; assay type: in vivo, Sorghum vulgare; details: GR80 = lowest tested rate (300, 100, 30, 10 g/ha) with 80% or greater inhibition; approx. 14 days after treating; 30/21° C.
Procedure: as §1, §2, §3, §4

Row | Compound | Pre-emergence activity (GR80) DATST (DATST (jimsonweed)) | Pre-emergence activity (GR80) PANMI [1] | Pre-emergence activity GR80, GALAP [2] | Pre-emergence activity GR80, POLCO (POLCO (wild buckwheat)) | Pre-emergence activity GR80, SINAR (SINAR (wild mustard)) | Pre-emergence activity GR80, VERPE [3] | Pre-emergence activity GR80, SASKR (SASKR (russian thistle)) | Pre-emergence activity GR80, STEME (STEME (common chickweed)) | Pre-emergence activity GR80, LAMPU [4] | Pre-emergence activity (GR80) AGSST [5] | Pre-emergence activity (GR80) SOLNI (SOLNI (black nightshade)) | Pre-emergence activity (GR80) AMARE (AMARE (redroot pigweed)) | Pre-emergence activity (GR80) CHEAL [6] | Pre-emergence activity (GR80) CIRAR [7] | Pre-emergence activity (GR80) ECHCG (ECHCG (barnyardgrass)) | Pre-emergence activity (GR80) SORHA [8] | Pre-emergence activity (GR80) SETFA (SETFA (giant foxtail)) | Pre-emergence activity (GR80) ALOMY (ALOMY (blackgrass)) | Pre-emergence activity (GR80) SETVI (SETVI (green foxtail)) | Pre-emergence activity (GR80) POROL (POROL (common purslane)) | other results
1 | CN(Cc1ccccc1)C(=O)n1cnc(S(=O)(=O)C(F)F)n1 [Example 33] | 300 g/ha | 300 g/ha | [empty] | [empty] | [empty] | 300 g/ha | 300 g/ha | 100 g/ha | 30 g/ha | 300 g/ha |  |  |  |  |  |  |  |  |  |  | 
2 | CCSC(F)(F)S(=O)(=O)c1ncn(C(=O)N2CCOCC2)n1 [Example 48] | 300 g/ha |  | 300 g/ha | 300 g/ha | [empty] | [empty] | [empty] | 300 g/ha | [empty] |  |  |  |  |  |  |  |  |  |  |  | 
3 | O=C(N1CCCC1)n1cnc(S(=O)(=O)C(F)(F)C(F)F)n1 [Example 59] |  | 100 g/ha | 100 g/ha | 300 g/ha | [empty] | [empty] | [empty] | 300 g/ha | 100 g/ha | 300 g/ha | 300 g/ha | 100 g/ha | 100 g/ha | 300 g/ha | 300 g/ha | 100 g/ha | 300 g/ha | 300 g/ha | 300 g/ha |  | Pre-emergence activity (GR80) BRAPP [9]: 100 g/ha; Pre-emergence activity (GR80) DIGSA (DIGSA (large crabgrass)): 30 g/ha
4 | CN(C)C(=O)n1cnc(S(=O)(=O)C(F)(F)C(F)F)n1 [Example 61] |  | 300 g/ha | 100 g/ha | [empty] | 300 g/ha | 100 g/ha | 100 g/ha | 300 g/ha | 300 g/ha | 100 g/ha |  |  | 300 g/ha | 300 g/ha | 300 g/ha |  |  | 100 g/ha | 300 g/ha | 300 g/ha | 
5 | CN(C(=O)n1cnc(S(=O)(=O)C(F)(F)C(F)F)n1)C1CCCCC1 [Example 67] |  | 100 g/ha | 300 g/ha | 300 g/ha | [empty] | 100 g/ha | [empty] | [empty] | [empty] | 100 g/ha |  | 300 g/ha | 100 g/ha |  | 300 g/ha | 300 g/ha | 300 g/ha |  | 300 g/ha | 300 g/ha | 
6 | CCN(CC)C(=S)n1cnc(S(=O)(=O)C(F)(F)C(F)F)n1 [Example 70] |  | 300 g/ha | [empty] | 300 g/ha | 300 g/ha | [empty] | 300 g/ha | [empty] | [empty] | 300 g/ha | 300 g/ha |  | 300 g/ha | 300 g/ha |  |  | 300 g/ha |  | 300 g/ha | 300 g/ha | Pre-emergence activity (GR80) DIGSA (DIGSA (large crabgrass)): 300 g/ha
7 | O=C(N1CCCC1)n1cnc(S(=O)(=O)C(F)(F)C(F)F)n1 [Example 71] |  | 300 g/ha | 100 g/ha | 300 g/ha | [empty] | [empty] | [empty] | 300 g/ha | 300 g/ha | 100 g/ha | 300 g/ha | 300 g/ha | 30 g/ha | 300 g/ha |  | 300 g/ha | 300 g/ha | 300 g/ha | 100 g/ha | 300 g/ha | 
8 | O=C(N1CCOCC1)n1cnc(S(=O)(=O)C(F)(F)Cl)n1 [Example 84] | 300 g/ha |  | [empty] | 300 g/ha | [empty] | [empty] | [empty] | [empty] | 300 g/ha |  |  |  |  |  |  |  |  |  |  |  | 
9 | CCCN(CC)C(=O)n1cnc(S(=O)(=O)C(F)(F)Cl)n1 [Example 87] |  | 30 g/ha | 300 g/ha | [empty] | [empty] | 100 g/ha | [empty] | [empty] | 100 g/ha | 100 g/ha | 100 g/ha | 300 g/ha | 300 g/ha | 300 g/ha | 100 g/ha | 100 g/ha | 300 g/ha | 100 g/ha | 100 g/ha | 100 g/ha | Pre-emergence activity (GR80) SORVU (SORVU (shattercane)): 300 g/ha; Pre-emergence activity (GR80) BRAPP [9]: 300 g/ha; Pre-emergence activity (GR80) DIGSA (DIGSA (large crabgrass)): 300 g/ha
